Source: patent US3932471A, “Azide” (priority 1973, dated 1976)
≈ marks a conversion by molar mass, not a printed value.

How the values were obtained:
Assay type in all cases: in vivo
[1] = tested on: Southern army worm (Prodenia eridania); assay: Southern army worm spray test (AW); settings: 72 h; contact activity rating, 50% mortality, three days
Description: (§1) The compounds are evaluated for biological activity against the following representative pests: Mexican bean beetle (Epilachna varivestis), Southern army worm (Prodenia eridania), housefly (Musca domestica), bean aphid (Aphis fabae), and red spider mite (Tetranychus sp.). The last two pests are treated both by contact and systemic application.
(§2) For purposes of comparison, results obtained with known Compound 7472, Compound 7577, and aldicarb are included in the test results. Each test compound is rated using the following scale:
Southern Army Worm Spray Test
Paired fully expanded primary leaves excised from Scarlet runner bean plants are maintained in plastic tubes containing water and sprayed with the test formulation prepared as described in Example 15. After the spray deposit on the leaves is dry, the paired leaves are separated. One leaf is placed onto 1.5 percent water agar and infested with 10 newly hatched Southern army worm larvae. The covered test receptacle is held at 72° F for three days and then the percent mortality is determined. Results of this test are shown in Table 7 as AW (Southern army worm spray test).

[2] = tested on: housefly (Musca domestica); assay: Housefly spray test (HF); settings: 72 h, contact activity rating, 50% mortality, three days
Description: as §1, §2
This test determines the insecticidal activity of the compound being tested against adult houseflies, Musca domestica. Stock formulations containing 500 ppm of each test chemical are prepared using the procedure described in Example 15 and are diluted to obtain the appropriate lower concentrations.
Ten adult flies are placed in a cylindrical screen cage 11/2 by 4 inches fabricated from 20-mesh stainless steel screening and are sprayed with 50 ml of the stock or diluted formulation. The flies are supplied food and drink from a dextrose solution by draping a paper wick over the outside of the screen cylinder and are able to feed and drink ad libitum. Percent mortality obtained is determined three days after treatment. Results of this test are shown in Table 7 as HF (housefly spray test).

[3] = tested on: root-knot nematodes (Meloidogyne spp.); assay: Root-knot nematocide test
Description: Root-knot Nematocide Test
This test is an evaluation of the effectiveness of the compound being tested against infection by root-knot nematodes (Meloidogyne spp.).
Composted greenhouse soil, diluted by one-third with clean washed sand, is infected with about two grams of knotted or galled tomato roots per pot. Treatment is accomplished by applying 25 ml of the formulated compound onto the infested soil. The formulation contains 0.056 g of Compound 7960, 1.0 ml stock emulsifier solution (0.25% Triton X-155 in acetone by volume), and 24.0 ml deionized water, giving a concentration of 2240 ppm. Lower concentrations are achieved by dilution.
After treatment with the test formulation, the soil, inoculum, and formulation are thoroughly mixed, returned to the pot, and the mixture incubated for seven days at 20° C and constant moisture. After incubation, two seedlings of Rutgers tomato transplants and three garden nasturtium (Nasturtium spp.) seeds are set in each pot. Roots are removed from the soil after three weeks of growth and rated for gall (root-knot nematode infection) formation. Nasturtium roots are evaluated only when necrosis of the tomato host has occurred. […] Each of the root systems is rated separately and the average is multiplied by 10 and subtracted from 100 to give percent nematode control.

Row | SMILES | LC50 [1] [µg/mL] | LC50 [2] [µg/mL] | further results
1 | CNC(=O)ON=C(C)C(C)(C)C [Compound 7472, 2,2-dimethyl-3-methylcarbamyloximinobutane, reference compound] | > 500 | > 500 | 
2 | CNC(=O)ON=C(CSCC(=O)OC)C(C)(C)C [Compound 7503, 1-carbomethoxymethylthio-3,3-dimethyl-2-methylcarbamyloximinobutane] | > 500 | > 500 | 
3 | CNC(=O)ON=C(C)C(C)(C)SC [Compound 7577, 3-methyl-2-methylcarbamyloximino-3-methylthiobutane, reference compound] | > 500 | > 500 | 
4 | CNC(=O)ON=C(C)CSC [Compound 7603, 2-methylcarbamyloximino-1-methylthiopropane] | > 500 | 16 to 32 (≈ 90.8 to 182 µM) | 
5 | CNC(=O)ON=C(CSc1ccccc1)C(C)(C)C [Compound 7718, 3,3-dimethyl-2-methylcarbamyloximino-1-phenylthiobutane] | > 500 | 250 to 500 (≈ 892 to 1780 µM) | 
6 | CCNC(=O)ON=C(CSC)C(C)(C)C [Compound 7797, 2-ethylcarbamyloximino-3,3-dimethyl-1-methylthiobutane] | > 500 | 64 to 128 (≈ 275 to 551 µM) | 
7 | C=CCNC(=O)ON=C(CSC)C(C)(C)C [Compound 7799, 2-allylcarbamyloximino-3,3-dimethyl-1-methylthiobutane] | > 500 | 128 to 250 (≈ 524 to 1020 µM) | 
8 | CNC(=O)ON=C(C[S+](C)[O-])C(C)(C)C (centres unmarked) [Compound 7804, 3,3-dimethyl-2-methylcarbamyloximino-1-methylsulfinylbutane] | 128 to 250 (≈ 546 to 1070 µM) | 128 to 250 (≈ 546 to 1070 µM) | 
9 | CSCC(=NOC(N)=O)C(C)(C)C [Compound 7859, 2-carbamyloximino-3,3-dimethyl-1-methylthiobutane] | > 500 | > 500 | 
10 | CCSCC(=NOC(=O)NC)C(C)(C)C [Compound 7862, 1-ethylthio-3,3-dimethyl-2-methylcarbamyloximinobutane] | > 500 | 64 to 128 (≈ 275 to 551 µM) | 
11 | CNC(=O)ON=C(CSC)C(C)C [Compound 7867, 3-methyl-2-methylcarbamyloximino-1-methylthiobutane] | > 500 | 64 to 128 (≈ 313 to 627 µM) | 
12 | CSCC(=NOC(=O)N(C)C)C(C)(C)C [Compound 7871, 3,3-dimethyl-2-dimethylcarbamyloximino-1-methylthiobutane] | > 500 | > 500 | 
13 | C=CCSCC(=NOC(=O)NC)C(C)(C)C [Compound 7897, 1-allylthio-3,3-dimethyl-2-methylcarbamyloximinobutane] | > 500 | 64 to 128 (≈ 262 to 524 µM) | 
14 | CCC(CSC)=NOC(=O)NC [Compound 7916, 2-methylcarbamyloximino-1-methylthiobutane] | > 500 | 64 to 128 (≈ 336 to 673 µM) | 
15 | CCCC(C)(C)C(CSC)=NOC(=O)NC [Compound 7934, 3,3-dimethyl-2-methylcarbamyloximino-1-methylthiohexane] | > 500 | > 500 | 
16 | CNC(=O)ON=C(CSC)C(C)(C)SC [Compound 7960, 1,3-bis(methylthio)-3-methyl-2-methylcarbamyloximinobutane] | > 500 | > 500 | Percent Control (nematode) ([3]; 0.5 lb/A): 97%; Percent Control (nematode) ([3]; 1 lb/A): 100%; Percent Control (nematode) ([3]; 2 lb/A): 100%; Percent Control (nematode) ([3]; 4 lb/A): 100%; Percent Control (nematode) ([3]; 8 lb/A): 100%
17 | CNC(=O)ON=C(CSC#N)C(C)(C)C [Compound 7991, 3,3-dimethyl-2-methylcarbamyloximino-1-thiocyanatobutane] | > 500 | > 500 | 
18 | CNC(=O)ON=C(C(C)SC)C(C)(C)C (centres unmarked) [Compound 8071, 2,2-dimethyl-3-methylcarbamyloximino-4-methylthiopentane] | > 500 | > 500 | 
19 | CNC(=O)ON=C(CCSC)C(C)(C)C [Compound 8111, 4,4-dimethyl-3-methylcarbamyloximino-1-methylthiopentane] | > 500 | 250 to 500 (≈ 1080 to 2150 µM) | 
20 | CNC(=O)ON=C(C1SCCS1)C(C)(C)C [Compound 8423, 1,1-ethylenedithio-3,3-dimethyl-2-methylcarbamyloximinobutane] |  |  | Percent Control (nematode) ([3]; 2 lb/A): 60%; Percent Control (nematode) ([3]; 4 lb/A): 90%; Percent Control (nematode) ([3]; 8 lb/A): 100%
21 | CNC(=O)ON=C(CSC)C1CC1 [Compound 8465, 1-cyclopropyl-1-methylcarbamyloximino-2-methylthioethane] | 250 to 500 (≈ 1240 to 2470 µM) | 128 to 250 (≈ 633 to 1240 µM) | 
22 | CNC(=O)ON=C(CSC)CC(C)(C)C [Compound 8519, 4,4-dimethyl-2-methylcarbamyloximino-1-methylthiopentane] | > 500 | > 500 | 
23 | CCC(C)(C)C(CSC)=NOC(=O)NC [Compound 8520, 3,3-dimethyl-2-methylcarbamyloximino-1-methylthiopentane] | > 500 | > 500 | 
24 | CNC(=O)ON=C(CS(C)(=O)=O)C(C)(C)C [Compound 8868, 3,3-dimethyl-2-methylcarbamyloximino-1-methylsulfonylbutane] | > 500 | 128 to 250 (≈ 511 to 999 µM) | 
25 | CNC(=O)ON=C(CN=[N+]=[N-])C(C)(C)C [Compound 8997, 1-azido-3,3-dimethyl-2-methylcarbamyloximinobutane] | 128 to 250 (≈ 600 to 1170 µM) | 128 to 250 (≈ 600 to 1170 µM) | Percent Control (nematode) ([3]; 2 lb/A): 0%; Percent Control (nematode) ([3]; 4 lb/A): 100%; Percent Control (nematode) ([3]; 8 lb/A): 100%
26 | CNC(=O)ON=C(CSCCSC)C(C)(C)C [Compound 9026, 3,3-dimethyl-2-methylcarbamyloximino-1-(2-methylthioethylthio)-butane] | > 500 | > 500 | Percent Control (nematode) ([3]; 1 lb/A): 30%; Percent Control (nematode) ([3]; 2 lb/A): 60%; Percent Control (nematode) ([3]; 4 lb/A): 70%; Percent Control (nematode) ([3]; 8 lb/A): 90%
27 | CCCC(CSC)=NOC(=O)NC [Compound 9057, 2-methylcarbamyloximino-1-methylthiopentane] | > 500 | 250 to 500 (≈ 1220 to 2450 µM) | 
28 | CNC(=O)ON=C(CSC)CC(C)C [Compound 9058, 4-methyl-2-methylcarbamyloximino-1-methylthiopentane] | > 500 | 250 to 500 (≈ 1150 to 2290 µM) | 
29 | CNC(=O)O/N=C/C(C)(C)SC [aldicarb, reference compound] | > 500 | 4 to 8 (≈ 21 to 42 µM) | 
